Experimental data published in article PMC6797481, “Identification of an allosteric binding site on the human glycine transporter, GlyT2, for bioactive lipid analgesics” (eLife, 2019).

Legend:
GlyT2 Q473A mutant = GlyT2 Q473A mutant (Homo sapiens, UniProt Q9Y345, Q473A); conditions: read-out: Glycine EC50; glycine transport, GlyT2 Q473A (vestibule allosteric site)
Procedure: (§1) Human GlyT1b or GlyT2a (herein referred to as GlyT1 and GlyT2) cDNA were sub-cloned into the plasmid oocyte transcription vector (pOTV). Site-directed mutagenesis was performed using traditional PCR techniques, and sequences confirmed by the Australian Genome Research Facility (Sydney, Australia). WT and mutant plasmid DNA were linearised with SpeI (New England Biolabs (Genesearch) Arundel, Australia) and RNA transcribed by T7 RNA polymerase using the mMessagemMachine kit (Ambion, TX, USA).
(§2) Oocytes were extracted from female Xenopus laevis frogs and detached from follicle cell containing lobes by digestion with 2 mg/mL collagenase A (Boehringer, Mannheim, Germany). Defoliculated stage V-VI oocytes were injected with 4.6 ng of cRNA encoding WT or mutant transporter (Drummond Nanoinject, Drummond Scientific Co., Broomall, PA, USA). Surgical proceedures have been approved by the University of Sydney Animal Ethics Committee (protocol 2016/970). The oocytes were stored at 16–18°C for 2–5 days in ND96 solution (96 mM NaCl, 2 mM KCL, 1 mM MgCl2, 1.8 mM CaCl2, 5 mM HEPES, pH 7.55), supplemented with 2.5 mM sodium pyruvate, 0.5 mM theophylline, 50 µg/mL gentamicin and […] tetracycline.
(§3) 2–5 days following injection, glycine transport currents were measured at −60 mV using Geneclamp 500 amplifier (Axon Instruments, Foster City, CA, USA) with a Powerlab 2/20 chart recorder (ADInstruments, Sydney, Australia) and chart software (ADInstruments). All data were subsequently analysed using GraphPad Prism 7.02 (GraphPad Software, San Diego, CA).
(§4) The function of each mutant transporter was tested by measuring glycine concentration dependent transport currents in ND96 (96 mM Na^+) to drive transport. EC50 values were determined using the modified Michaelis-Menten equation:(1) I=([GIy].Imax)/EC50+[GIy] where I is current (nA), [Gly] is the concentration of glycine, Imax is the current generated by a maximal concentration of glycine (300 µM) and EC50 is the concentration of glycine that generates a half maximal current. Values are presented as mean ± SEM obtained fromn ≥3 cells from at least two batches of oocytes. To determine if mutations affected glycine transport, one way ANOVA tests were employed, with a Dunnett’s post-hoc test used for comparison with WT GlyT2. For L425I comparison with WT GlyT1 a two-tailed t-test was used. Statistical significance were represented as p<0.05 *, p<0.01 **, p<0.001 *** etc. in the following figures.
(§5) Glycine concentration response curves were performed on WT and mutant transporters to generate EC50 values. Transport currents were measured in the presence of increasing concentrations of glycine (1 – 300 μM).

GlyT2 P429A mutant = GlyT2 P429A mutant (Homo sapiens, UniProt Q9Y345, P429A); conditions: glycine transport, GlyT2 P429A (TM5)
Procedure: as §1, §2, §3, §4, §5

GlyT2 T472A mutant = GlyT2 T472A mutant (Homo sapiens, UniProt Q9Y345, T472A); conditions: glycine transport, GlyT2 T472A (vestibule allosteric site)
Procedure: as §1, §2, §3, §4, §5

GlyT2 E701A mutant = GlyT2 E701A mutant (Homo sapiens, UniProt Q9Y345, E701A); conditions: read-out: Glycine EC50; glycine transport, GlyT2 E701A (vestibule allosteric site)
Procedure: as §1, §2, §3, §4, §5

GlyT2 T634A mutant = GlyT2 T634A mutant (Homo sapiens, UniProt Q9Y345, T634A); conditions: read-out: Glycine EC50; glycine transport, GlyT2 T634A (vestibule allosteric site)
Procedure: as §1, §2, §3, §4, §5

GlyT2 S696A mutant = GlyT2 S696A mutant (Homo sapiens, UniProt Q9Y345, S696A); conditions: read-out: Glycine EC50; glycine transport, GlyT2 S696A (vestibule allosteric site)
Procedure: as §1, §2, §3, §4, §5

GlyT2 F569A/V/L mutants = conditions: glycine transport, GlyT2 F569A/V/L (TM8)
Procedure: as §1, §2, §3, §4, §5

GlyT2 D469A mutant = GlyT2 D469A mutant (Homo sapiens, UniProt Q9Y345, D469A); conditions: read-out: Glycine EC50; glycine transport, GlyT2 D469A (vestibule allosteric site)
Procedure: as §1, §2, §3, §4, §5

GlyT2 T634A mutant, sequence (Q9Y345 whole entry T634A): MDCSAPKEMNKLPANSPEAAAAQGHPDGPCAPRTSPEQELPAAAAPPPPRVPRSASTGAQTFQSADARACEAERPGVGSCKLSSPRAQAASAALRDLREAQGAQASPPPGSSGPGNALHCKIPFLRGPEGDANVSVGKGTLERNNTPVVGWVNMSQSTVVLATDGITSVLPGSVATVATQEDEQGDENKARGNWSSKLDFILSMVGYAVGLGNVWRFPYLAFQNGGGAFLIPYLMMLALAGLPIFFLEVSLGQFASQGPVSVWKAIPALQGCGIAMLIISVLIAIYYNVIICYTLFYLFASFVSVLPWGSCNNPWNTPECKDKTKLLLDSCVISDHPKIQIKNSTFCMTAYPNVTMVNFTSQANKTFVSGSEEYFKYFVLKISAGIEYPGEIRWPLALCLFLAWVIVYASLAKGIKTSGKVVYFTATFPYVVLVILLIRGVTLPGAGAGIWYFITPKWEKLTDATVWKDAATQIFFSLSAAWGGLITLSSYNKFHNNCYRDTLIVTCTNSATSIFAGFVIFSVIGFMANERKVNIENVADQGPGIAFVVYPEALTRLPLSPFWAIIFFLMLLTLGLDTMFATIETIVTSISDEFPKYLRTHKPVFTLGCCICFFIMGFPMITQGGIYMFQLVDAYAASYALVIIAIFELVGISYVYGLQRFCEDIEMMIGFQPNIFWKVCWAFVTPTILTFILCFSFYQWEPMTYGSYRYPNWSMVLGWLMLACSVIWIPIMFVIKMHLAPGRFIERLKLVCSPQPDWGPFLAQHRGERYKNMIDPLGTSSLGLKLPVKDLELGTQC
GlyT2 S696A mutant, sequence (Q9Y345 whole entry S696A): as the sequence (Q9Y345 whole entry T634A) above, with A634T, S696A counted along it
GlyT2 E701A mutant, sequence (Q9Y345 whole entry E701A): as the sequence (Q9Y345 whole entry T634A) above, with A634T, E701A counted along it
GlyT2 T472A mutant, sequence (Q9Y345 whole entry T472A): as the sequence (Q9Y345 whole entry T634A) above, with T472A, A634T counted along it
GlyT2 D469A mutant, sequence (Q9Y345 whole entry D469A): as the sequence (Q9Y345 whole entry T634A) above, with D469A, A634T counted along it
GlyT2 P429A mutant, sequence (Q9Y345 whole entry P429A): as the sequence (Q9Y345 whole entry T634A) above, with P429A, A634T counted along it
GlyT2 Q473A mutant, sequence (Q9Y345 whole entry Q473A): as the sequence (Q9Y345 whole entry T634A) above, with Q473A, A634T counted along it

For `NCC(=O)O` [Glycine], the EC50 (GlyT2 Q473A mutant) was 498 ± 146 µM, the “Glycine EC50” value (GlyT2 P429A mutant) was “No transport currents” and the “Glycine EC50” value (GlyT2 T472A mutant) was “No transport currents”. For the same molecule, the EC50 (GlyT2 E701A mutant) was 16.5 ± 0.87 µM, the EC50 (GlyT2 T634A mutant) was 28.6 ± 3.2 µM and the EC50 (GlyT2 S696A mutant) was 25.6 ± 2.7 µM. The “Glycine EC50” value (GlyT2 F569A/V/L mutants) was “No transport currents” and the EC50 (GlyT2 D469A mutant) was 110 ± 12.8 µM.
